{"source": "paper PMC9369442", "about": "“Synthetic Peucedanocoumarin IV Prevents α-Synuclein Neurotoxicity in an Animal Model of Parkinson’s Disease” (International Journal of Molecular Sciences, 2022)", "key": {"[1]": {"test_system": "combinatorial α-synucleinopathy PD mouse model", "test": "Sporadic PD mouse model, combinatorial PFF and rAAV-αSyn nigral injection, PCiv diet", "type": "in vivo", "description": "Figure 4 PCiv administration suppresses PFF-induced dopaminergic neurodegeneration, α-synuclein aggregation, and motor dysfunction in vivo. (A) Bradykinesia (slowness of movement) assessed by pole test for control and combinatorial PFF/AAV-αSyn-injected mice with or without PCiv treatment (50 mg PCiv/kg diet for 30 days, n = 5 per group). Control mice are those nigrally injected with PBS and AAV-GFP. (B) Motor coordination of the mice in the experimental group was assessed by an accelerated rotarod test (n = 5 per group). (C) Representative tyrosine hydroxylase (TH) immunohistochemical staining of the ventral midbrains of control and combinatorial α-synucleinopathy-PD mice fed with a PCiv diet (50 mg/kg diet for 30 days) or normal chow diet. (D) Stereological assessment of TH-positive dopaminergic neurons in the substantia nigra pars compacta of the injection side of the indicated mice groups (n = 5 mice per group). (E) Representative immunofluorescence images of pS129-αSyn and TH in the substantia nigra coronal sections of the indicated experimental mice groups. (F) Quantification of relative pS129-αSyn fluorescence intensities in the TH-positive dopamine neurons of the substantia nigra sections from the indicated experimental groups (n = 28 cells from 3 mice per group). The quantified data are expressed as means ± SEMs. Statistical significance was determined by an ANOVA test with Tukey’s post hoc analysis, ** p < 0.01, *** p < 0.001, and **** p < 0.0001. ns = nonsignificant.\nAll animal experiments were approved by the Ethical Committee of Sungkyunkwan University Animal Care and Use Committee of Gachon University (Approval number: […]2019-06-15-1; GIACUC-R2021006) and were conducted in accordance with all applicable international guidelines. Male C57BL/6N mice (2 months old) were obtained from Orient Bio (Suwon, Korea). The animals were housed in air-controlled rooms with a 12-h dark/light cycle. Mice and rats were provided ad libitum access to diet and water. All efforts were made to minimize animal suffering and the number of animals used in the experiments. A synthetic PCiv diet was supplied to the mice. The PCiv diet administration (50 mg/kg/day for PFF PD mouse models) began on day 0 and was continued for 30 days. Intranigral injection of the rAAV-αSyn and PFF mixture was performed on day 0. Mice brains were prepared for analysis, as described below. To test the therapeutic effects of PCiv, we prepared a diet containing PCiv. To facilitate each mouse consuming 2 mg of PCiv per day, we generated a mixture of 400 mg of PCiv per kg of rodent diet and then supplied it to the mice.\nThe α-synucleinopathy PD model was created by co-injecting PFF (10 µg; ventral tegmental area: AP, −3.4 mm; ML, −0.5 mm; DV, −4.3 mm) and rAAV-αSyn (AAV serotype 1, 1 µL of titer 5 × 1011 GC/mL; substantia nigra pars compacta: AP, −3.4 mm; ML, −1.3 mm; DV, −4.3 mm) into a 2-month-old C57BL/6N mouse. rAAV-GFP was used as the control. PFF was prepared from pure recombinant human α-synuclein (Proteos, Inc., Kalamazoo, MI, USA) according to a previous report. Before use, sonicated PFFs were evaluated using Western blotting and a functional assay in cortical neuron cultures (pS129-αSyn induction and neurotoxicity). After co-injecting PFF and rAAV-αSyn, PD models were fed a PCiv or normal diet for a month. For stereological analysis, the animals were perfused 1 month after intranigral injection and fixed intracardially with ice-cold PBS. The tissues were post-fixed with 4% paraformaldehyde overnight. The fixed mice brains were cryoprotected in 30% sucrose (wt/vol) in PBS and subsequently processed for immunohistochemistry.\nCoronal sections (thickness, 35 µm) of the fixed and cryoprotected brains were cut, including the substantia nigra. […]"}, "[2]": {"test": "Dissolution in dosing vehicle", "type": "physicochemical", "settings": "DMSO:PEG400:saline ratio of 5:70:25", "description": "In vivo rat pharmacokinetic studies were performed for intravenous and oral administration of PCiv as previously reported. Sprague-Dawley rats (8 weeks old, 260–280 g) were purchased from Orient Bio Inc. (Seongnam, Korea). Rats were maintained with free access to food and water under a 12:12 h light/dark cycle for 1 week. For pharmacokinetic studies, under anesthetic conditions (20 mg/kg tiletamine/zolazepam [Zoletil; Vibrac Laboratories, Carros, France] administered intramuscularly), the femoral vein and artery were surgically cannulated using polyethylene tubing (PE50; Clay Adams, Parsippany, NJ, USA) in fasted rats. Then, PCiv was administered intravenously and orally at a dose of 10 mg/kg (n = 4–5). The drug was dissolved in a vehicle (DMSO:PEG400:saline at a ratio of 5:70:25). Blood samples (approximately 100 μL) were collected at predetermined time points (0, 1, 5 (intravenous administration only), 15, 30, 60, 120, 180, 240, 360, and 480 min) after drug administration. […] The PCiv level was determined using a CapcellpakTM C18 5 μm column (250 × 1.5 mm, Shiseido Fine Chemical Co., Tokyo, Japan), as previously described. […] The tissue concentration levels were calculated as the PCiv amount (ng) per gram of organ weight."}, "[3]": {"settings": "PD mice, PCiv diet 50 mg/kg diet for 30 days"}}, "data": [{"smiles": "C/C=C(\\C)C(=O)O[C@H]1[C@H](OC(C)=O)c2c(ccc3ccc(=O)oc23)OC1(C)C", "note": "(relative stereo) [PCiv, trans-4′-acetyl-3′-tigloylkhellactone]", "values": [{"measurement": "total α-synuclein expression", "setting": "[1]; PBS+AAV-GFP and PFF+AAV-αSyn injection groups, PCiv diet", "value": "no alteration"}, {"measurement": "development of motor impairment (pole and rotarod tests)", "setting": "[1]; PD mice, PCiv diet 50 mg per kg diet, four weeks", "value": "almost completely prevented"}, {"measurement": "dopaminergic neurons (TH-positive, substantia nigra)", "setting": "[1]; [3]", "value": "marked protection"}, {"measurement": "α-synuclein aggregation pathology (pS129-αSyn in TH-positive dopamine neurons)", "setting": "[1]; [3]", "value": "largely blocked"}, {"measurement": "dopamine neuron viability in control mouse group", "setting": "[1]; control mice (PBS + AAV-GFP), PCiv diet", "value": "no effect"}, {"measurement": "overt toxicity", "setting": "[1]; in cells and in vivo mouse models", "value": "did not observe any overt toxicity"}, {"measurement": "dissolution in vehicle solution", "setting": "[2]", "value": "well-dissolved"}]}]}
